Measured values published in patent US20200315984A1 (priority 2013, published 2020).
Read-outs that look alike come from different tables or passages of the source.

Columns and labels:
[1] = Extrapolated absorption data for dual-film dosage; type: in vivo; details: human, plasma, dual-layered film; for AUC: local pH 3.5 and 5.5, read-out: Naloxone AUC; for Cmax: local pH 3.5 and 5.5, read-out: Naloxone Cmax
Experimental: A dual-film dosage is prepared, with the first film layer having a local pH of about 3.5 and containing an antagonist therein, and the second film layer having a local pH of about 5.5 and containing an agonist therein. In this dual-film dosage, the first film layer (having the antagonist) is a fast-dissolving film, while the second film layer (having the agonist) is a moderate dissolving film.

[2] = cited from earlier work
[3] = other: sublingual or buccal film
[4] = other: sublingual/buccal film dissolved in the oral cavity

For `C=CCN1CC[C@]23c4c5ccc(O)c4O[C@H]2C(=O)CC[C@@]3(O)[C@H]1C5` [naloxone], the AUC [1, 3] was 0.0905 to 0.724 ng·h/mL, the Cmax [1, 3] was 0.0325 to 0.26 ng/mL and the AUC [1, 4] was 0.0906 to 0.724 ng·h/mL. For the same compound, the Cmax [1, 4] was 0.0325 to 0.26 ng/mL and the pKa [2] was “about 7.94”.
